Results from ChEMBL document CHEMBL1201862, “PubChem BioAssay data set” (2004).
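Growth conditions: 96-well plates. Treatment: test compound, 48 hours, 5 concentrations. Analysis: linear interpolation between bracketing concentrations; unreached endpoints set to highest concentration. At the GI50, growth is halved.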 Active and inactive are the calls of the source. Rule as the data show it: active = GI50 up to about 1.1 µM and inactive = higher.

Experiments:
Test in all cases: inhibition of tumour cell growth, NCI panel, 48 h
A549 = test system: A549
COLO 205 = test system: COLO 205
HCT-15 = test system: HCT-15
HOP-62 = test system: HOP-62
HT-29 = test system: HT-29
KM12 = test system: KM12
M14 = test system: M14
NCI-H460 = test system: NCI-H460
OVCAR-5 = test system: OVCAR-5
OVCAR-8 = test system: OVCAR-8
RPMI-8226 = test system: RPMI-8226
SK-OV-3 = test system: SK-OV-3
UACC-257 = test system: UACC-257
UO-31 = test system: UO-31
DMS-114 = test system: DMS-114
DMS-273 = test system: DMS-273
HCT-116 = test system: HCT-116
KM-20L2 = test system: KM-20L2
Malme-3M = test system: Malme-3M
NCI-H522 = test system: NCI-H522

SMILES: O=C1CCC[C@H]2O[C@@H](COC(=O)c3ccccc3)C[C@H]2O1
- GI50 (A549): > 100 µM (inactive)
- GI50 (COLO 205): > 100 µM (inactive)
- GI50 (HCT-15): > 100 µM
- GI50 (HOP-62): > 100 µM (inactive)
- GI50 (HT-29): > 100 µM (inactive)
- GI50 (KM12): > 100 µM (inactive)
- GI50 (M14): > 100 µM (inactive)
- GI50 (NCI-H460): > 100 µM (inactive)
- GI50 (OVCAR-5): > 100 µM (inactive)
- GI50 (OVCAR-8): > 100 µM (inactive)
- GI50 (RPMI-8226): > 100 µM (inactive)
- GI50 (SK-OV-3): > 100 µM (inactive)
- GI50 (UACC-257): > 100 µM (inactive)
- GI50 (UO-31): > 100 µM (inactive)

SMILES: CN(C)C(=O)N(CCCl)N=O
- GI50 (A549): > 100 µM (inactive)
- GI50 (COLO 205): > 100 µM (inactive)
- GI50 (DMS-114): > 100 µM (inactive)
- GI50 (DMS-273): > 100 µM (inactive)
- GI50 (HCT-116): > 100 µM (inactive)
- GI50 (HCT-15): > 100 µM
- GI50 (HOP-62): > 100 µM (inactive)
- GI50 (HT-29): > 100 µM (inactive)
- GI50 (KM-20L2): > 100 µM (inactive)
- GI50 (KM12): > 100 µM (inactive)
- GI50 (Malme-3M): > 100 µM (inactive)
- GI50 (NCI-H460): > 100 µM (inactive)
- GI50 (NCI-H522): > 100 µM (inactive)
- GI50 (OVCAR-5): > 100 µM (inactive)
- GI50 (OVCAR-8): > 100 µM (inactive)
- GI50 (RPMI-8226): > 100 µM (inactive)
- GI50 (SK-OV-3): > 100 µM (inactive)
- GI50 (UACC-257): > 100 µM (inactive)
- GI50 (UO-31): > 100 µM (inactive)

SMILES: CC(C)OP(=O)(OC(C)C)C1=NN(c2ccc([N+](=O)[O-])cc2)C(P(=O)(OC(C)C)OC(C)C)=NN1c1ccc([N+](=O)[O-])cc1
- GI50 (A549): 7.94 µM (inactive)
- GI50 (COLO 205): > 100 µM (inactive)
- GI50 (DMS-114): 12.8 µM (inactive)
- GI50 (DMS-273): 22.5 µM (inactive)
- GI50 (HCT-116): 7.6 µM (inactive)
- GI50 (HCT-15): 9.18 µM
- GI50 (HOP-62): > 100 µM (inactive)
- GI50 (HT-29): 44 µM (inactive)
- GI50 (KM-20L2): > 100 µM (inactive)
- GI50 (KM12): 67.3 µM (inactive)
- GI50 (M14): > 100 µM (inactive)
- GI50 (Malme-3M): 72.1 µM (inactive)
- GI50 (NCI-H460): 29.2 µM (inactive)
- GI50 (NCI-H522): 46 µM (inactive)
- GI50 (OVCAR-5): > 100 µM (inactive)
- GI50 (OVCAR-8): 38.1 µM (inactive)
- GI50 (RPMI-8226): 5.62 µM (inactive)
- GI50 (SK-OV-3): > 100 µM (inactive)
- GI50 (UO-31): 95.7 µM (inactive)

SMILES: C1=C(c2ccccc2)SC(N2CCCCC2)S1 (stereo unspecified)
- GI50 (COLO 205): > 100 µM (inactive)
- GI50 (DMS-114): 60.1 µM (inactive)
- GI50 (DMS-273): > 100 µM (inactive)
- GI50 (HCT-116): > 100 µM (inactive)
- GI50 (HCT-15): > 100 µM
- GI50 (HOP-62): > 100 µM (inactive)
- GI50 (HT-29): > 100 µM (inactive)
- GI50 (KM-20L2): > 100 µM (inactive)
- GI50 (KM12): > 100 µM (inactive)
- GI50 (M14): > 100 µM (inactive)
- GI50 (Malme-3M): 88.7 µM (inactive)
- GI50 (NCI-H460): > 100 µM (inactive)
- GI50 (NCI-H522): 66.4 µM (inactive)
- GI50 (OVCAR-5): > 100 µM (inactive)
- GI50 (RPMI-8226): 59.7 µM (inactive)
- GI50 (SK-OV-3): > 100 µM (inactive)
- GI50 (UACC-257): > 100 µM (inactive)
- GI50 (UO-31): > 100 µM (inactive)

SMILES: Cc1ccc(S(=O)(=O)Oc2cc(-c3ccccc3)nc3ccccc23)cc1
- GI50 (A549): 3.15 µM (inactive)
- GI50 (COLO 205): 0.544 µM (active)
- GI50 (DMS-114): 0.333 µM (active)
- GI50 (DMS-273): 1.04 µM (active)
- GI50 (HCT-116): 2.36 µM (inactive)
- GI50 (HCT-15): 1.41 µM
- GI50 (HOP-62): 3.73 µM (inactive)
- GI50 (HT-29): 1.93 µM (inactive)
- GI50 (KM-20L2): 1.57 µM (inactive)
- GI50 (KM12): 1.2 µM (inactive)
- GI50 (Malme-3M): 1.58 µM (inactive)
- GI50 (NCI-H460): 1.81 µM (inactive)
- GI50 (NCI-H522): 1.13 µM (inactive)
- GI50 (OVCAR-5): 15.8 µM (inactive)
- GI50 (OVCAR-8): 5.24 µM (inactive)
- GI50 (RPMI-8226): 2.61 µM (inactive)
- GI50 (SK-OV-3): 2.23 µM (inactive)
- GI50 (UACC-257): 10 µM (inactive)
- GI50 (UO-31): 6.3 µM (inactive)

SMILES: O=C(NCCN(CCNC(=O)c1cccc(=O)n1O)CCNC(=O)c1cccc(=O)n1O)c1cccc(=O)n1O
- GI50 (A549): > 100 µM (inactive)
- GI50 (COLO 205): > 100 µM (inactive)
- GI50 (HCT-15): > 100 µM
- GI50 (HOP-62): > 100 µM (inactive)
- GI50 (HT-29): > 100 µM (inactive)
- GI50 (KM12): > 100 µM (inactive)
- GI50 (M14): > 100 µM (inactive)
- GI50 (Malme-3M): > 100 µM (inactive)
- GI50 (NCI-H460): > 100 µM (inactive)
- GI50 (NCI-H522): > 100 µM (inactive)
- GI50 (OVCAR-5): > 100 µM (inactive)
- GI50 (OVCAR-8): > 100 µM (inactive)
- GI50 (RPMI-8226): > 100 µM (inactive)
- GI50 (SK-OV-3): > 100 µM (inactive)
- GI50 (UACC-257): > 100 µM (inactive)
- GI50 (UO-31): > 100 µM (inactive)

SMILES: COc1ccc(/C(Cl)=C(\C=O)c2ccc(Cl)cc2)cc1
- GI50 (A549): 5.61 µM (inactive)
- GI50 (DMS-114): 4.15 µM (inactive)
- GI50 (DMS-273): 4.34 µM (inactive)
- GI50 (HCT-116): 4.02 µM (inactive)
- GI50 (HCT-15): 3.41 µM
- GI50 (HOP-62): 19.4 µM (inactive)
- GI50 (HT-29): 4.84 µM (inactive)
- GI50 (KM-20L2): 6.41 µM (inactive)
- GI50 (M14): 14.1 µM (inactive)
- GI50 (Malme-3M): 23.3 µM (inactive)
- GI50 (NCI-H460): 3.81 µM (inactive)
- GI50 (NCI-H522): 2.19 µM (inactive)
- GI50 (OVCAR-5): 57.5 µM (inactive)
- GI50 (OVCAR-8): 4.41 µM (inactive)
- GI50 (SK-OV-3): 40.9 µM (inactive)
- GI50 (UACC-257): 11 µM (inactive)
- GI50 (UO-31): 4.71 µM (inactive)

SMILES: Cc1cn([C@@H]2C[C@H](CO)[C@@H](O)C2)c(=O)[nH]c1=O
- GI50 (A549): > 100 µM (inactive)
- GI50 (COLO 205): > 100 µM (inactive)
- GI50 (DMS-114): > 100 µM (inactive)
- GI50 (DMS-273): > 100 µM (inactive)
- GI50 (HCT-116): > 100 µM (inactive)
- GI50 (HCT-15): > 100 µM
- GI50 (HOP-62): > 100 µM (inactive)
- GI50 (HT-29): > 100 µM (inactive)
- GI50 (KM-20L2): > 100 µM (inactive)
- GI50 (KM12): > 100 µM (inactive)
- GI50 (M14): > 100 µM (inactive)
- GI50 (Malme-3M): > 100 µM (inactive)
- GI50 (NCI-H460): > 100 µM (inactive)
- GI50 (NCI-H522): > 100 µM (inactive)
- GI50 (OVCAR-5): > 100 µM (inactive)
- GI50 (OVCAR-8): > 100 µM (inactive)
- GI50 (SK-OV-3): > 100 µM (inactive)
- GI50 (UACC-257): > 100 µM (inactive)
- GI50 (UO-31): > 100 µM (inactive)
